We go through one compound from article PMC3551932, “STK295900, a Dual Inhibitor of Topoisomerase 1 and 2, Induces G2 Arrest in the Absence of DNA Damage” (PLoS ONE, 2013).

In one experiment the test system is HCT-116 cells. The experiment is described as follows: Cell growth inhibition assay, HCT-116. Format: cell-based. The note with it: Homo sapiens, 96 h, Table 1, growth up to 4 days. The source says:
(§1) Human epitheloid cervical carcinoma HeLa cells, human breast adenocarcinoma MCF7 and MDA-MB-231cells, human hepatocellular carcinoma HepG2 cells, human colon adenocarcinoma HT-29 cells, and human colorectal carcinoma HCT-116 cells were purchased from ATCC® and maintained in DMEM medium. Human prostate carcinoma PC-3 cells (purchased from ATCC®), human gastric carcinoma SNU-484 and SNU-601(obtained from Korean Cell Line Bank (KCLB)), human leukemia K-562 and HL-60 cells (purchased from ATCC®), immortalized human prostate epithelial 267B1cells, and immortalized human embryonic lung fibroblast MRC5CV1 cells were maintained in RPMI 1640 medium whereas immortalized retinal pigment epithelial hTERT RPE-1 cells (purchased from ATCC®) were maintained in DMEM/F12 medium. All cell lines were cultured in media supplemented with 10% fetal bovine serum, 100 U/ml penicillin, and […] streptomycin at 37°C in a 5% CO2 incubator.
(§2) Cells were seeded at the appropriate amount (1–2×10^3 cells) in triplicate in 96-well plates for 24 h and then treated with various concentrations of STK295900. Cell growth was determined by using EZ-CyTox cell viability assay kit (Daeil Lab. Service, Seoul, Korea). Ten microliters of WST solution were added to the treated cells at 24, 48, 72, and 96 h. Cells were further incubated at 37°C for 2 h and the absorbance was measured at 450 nm.

A further experiment relates to SNU-601 cells. The experiment is described as follows: Cell growth inhibition assay, SNU-601. The note with it: Homo sapiens, 96 h; Table 1; SNU-601, gastric carcinoma; growth up to 4 days. Format: cell-based.
From the text: as §1, §2

Experiment [1] concerns HeLa cells. In words: Antagonistic effect on Top poison-induced DNA damage (γ-H2A.X immunoblot). The format is cell-based, human. How it is done: (§3) Cells were lysed with cold RIPA buffer (50 mM Tris-HCl pH 8.0, 150 mM NaCl, 1% NP-40, 0.5% sodium deoxycholate, 0.1% SDS) containing freshly added protease inhibitor, phosphatase inhibitor (SIGMA), 1 mM DTT, and 1 mM Na3VO4 on ice for 1 h. Whole cell lysates were centrifuged at 15,000 rpm for 20 min and then the supernatant was transferred into a new tube. An appropriate amount of cell lysate was subjected to SDS-PAGE. Then the resolved proteins were transferred onto a PVDF membrane (Bio-Rad) for immunoblot analyses with specific antibodies. The proteins were detected using chemiluminescence solution (Thermo Scientific, Rockford, IL).
(§4) Supercoiled DNA relaxation assay for (A) topoisomerase 1 (Top 1) and (B) topoisomerase 2 (Top 2). Supercoiled pBR322 plasmid DNA was incubated at 37°C for 30 min with Top 1 enzyme (A) or Top 2α (B) in the presence of various concentrations of indicated compounds. DNA samples were separated by electrophoresis on a 1% agarose gel, stained with ethidium bromide, and visualized by UV light. (−), supercoiled DNA alone; oc, open circular; sc, supercoiled. […] HeLa cells were pretreated with 10 µM of STK295900 for 30 min and then incubated with the indicated concentrations of camptothecin for 1 h. Treated cells were lysed and subjected to immunoblot analyses with antibody against γ-H2A.X. β-actin was used as a loading control. […] HeLa cells were pretreated with STK295900 at 10, 20, 30, or 50 µM or ICRF-193 at 10 µM for 30 min. […] Treated cells were then lysed and subjected to immunoblot analyses with antibody against γ-H2A.X. β-actin was used as a loading control.
The lysates were subjected to immunoblot analyses with γ-H2A.X antibody.
(In general: A western blot detects proteins with antibodies after separation by electrophoresis.)

In another experiment the test system is hTERT RPE-1 cells. In words: Cell growth inhibition assay, hTERT RPE-1. The format is cell-based, human. The note with it: Homo sapiens, hTERT-RPE1, 96 h; Table 2 comparison; hTERT RPE-1, non-cancer; growth up to 4 days.
From the text: as §1, §2

Experiment [2] deals with HeLa cells. In words: Immunoblot of cell cycle and DNA damage checkpoint proteins. Format: cell-based, human. To be noted: 24 h, STK295900 1 or 5 µM, camptothecin 10 µM, etoposide 10 µM. How it is done: as §3
(A) Flow cytometric analysis for cell cycle distribution. HeLa cells were treated with the indicated concentrations of STK295900 for 24 h. Treated cells were then stained with propidium iodide (PI) and processed for cell cycle analysis. The bar graph represents the mean percentage of each cell cycle phase ± SD from three independent experiments. * = p<0.05 versus the respective G1, S, or G2/M phase of DMSO-treated cells. (B) Mitotic index of STK295900. HeLa cells were treated with the indicated concentrations of STK295900 for 24 h. Cells were then stained with Hoechst 33342 and mitotic cells were counted. […] (C) Cell cycle related proteins expression. […] Treated cells were lysed and subjected to immunoblot analyses with antibodies against cyclin A, cyclin B1, phospho-Histone H3 (S10), and Histone H3. β-actin was used as a loading control.
(A) G2/M transition regulated proteins expression. […] GAPDH was used as a loading control. (B) DNA damage-checkpoint related proteins. […] Images were analyzed on a fluorescence microscope.

The test system of another experiment is SNU-484 cells. In words: Cell growth inhibition assay, SNU-484. The note with it: Homo sapiens, 96 h; Table 1; SNU-484, gastric carcinoma; growth up to 4 days. Format: cell-based.
From the text: as §1, §2

The target in a further experiment is human topoisomerase 2α (Homo sapiens, UniProt P11388). In words: Supercoiled DNA relaxation assay for topoisomerase 2α. Format: biochemical. To be noted: pBR322, 37°C, 30 min. How it is done:
After incubation, the reaction was terminated by addition of 2 µl of 10% SDS. The reaction mixtures were treated with 50 µg/ml proteinase K for 30 min at 37°C and then DNA was extracted with CIA (chloroform:isoamyl alcohol, 24∶1). Samples were resolved by electrophoresis on a 1% agarose gel. After staining the electrophoresed gel with ethidium bromide, DNA bands were visualized by UV light and photographed on Gel Doc XR.
as §4

Experiment [3] has as its system HeLa cells. The experiment is described as follows: Cell growth inhibition assay, HeLa. The note with it: Homo sapiens, 96 h, growth up to 4 days. Format: cell-based, human.
From the text: as §1, §2

The IC50 is the concentration needed to halve the response being measured.

Molecules are shown by their SMILES.

human topoisomerase 2α, sequence (P11388 whole entry): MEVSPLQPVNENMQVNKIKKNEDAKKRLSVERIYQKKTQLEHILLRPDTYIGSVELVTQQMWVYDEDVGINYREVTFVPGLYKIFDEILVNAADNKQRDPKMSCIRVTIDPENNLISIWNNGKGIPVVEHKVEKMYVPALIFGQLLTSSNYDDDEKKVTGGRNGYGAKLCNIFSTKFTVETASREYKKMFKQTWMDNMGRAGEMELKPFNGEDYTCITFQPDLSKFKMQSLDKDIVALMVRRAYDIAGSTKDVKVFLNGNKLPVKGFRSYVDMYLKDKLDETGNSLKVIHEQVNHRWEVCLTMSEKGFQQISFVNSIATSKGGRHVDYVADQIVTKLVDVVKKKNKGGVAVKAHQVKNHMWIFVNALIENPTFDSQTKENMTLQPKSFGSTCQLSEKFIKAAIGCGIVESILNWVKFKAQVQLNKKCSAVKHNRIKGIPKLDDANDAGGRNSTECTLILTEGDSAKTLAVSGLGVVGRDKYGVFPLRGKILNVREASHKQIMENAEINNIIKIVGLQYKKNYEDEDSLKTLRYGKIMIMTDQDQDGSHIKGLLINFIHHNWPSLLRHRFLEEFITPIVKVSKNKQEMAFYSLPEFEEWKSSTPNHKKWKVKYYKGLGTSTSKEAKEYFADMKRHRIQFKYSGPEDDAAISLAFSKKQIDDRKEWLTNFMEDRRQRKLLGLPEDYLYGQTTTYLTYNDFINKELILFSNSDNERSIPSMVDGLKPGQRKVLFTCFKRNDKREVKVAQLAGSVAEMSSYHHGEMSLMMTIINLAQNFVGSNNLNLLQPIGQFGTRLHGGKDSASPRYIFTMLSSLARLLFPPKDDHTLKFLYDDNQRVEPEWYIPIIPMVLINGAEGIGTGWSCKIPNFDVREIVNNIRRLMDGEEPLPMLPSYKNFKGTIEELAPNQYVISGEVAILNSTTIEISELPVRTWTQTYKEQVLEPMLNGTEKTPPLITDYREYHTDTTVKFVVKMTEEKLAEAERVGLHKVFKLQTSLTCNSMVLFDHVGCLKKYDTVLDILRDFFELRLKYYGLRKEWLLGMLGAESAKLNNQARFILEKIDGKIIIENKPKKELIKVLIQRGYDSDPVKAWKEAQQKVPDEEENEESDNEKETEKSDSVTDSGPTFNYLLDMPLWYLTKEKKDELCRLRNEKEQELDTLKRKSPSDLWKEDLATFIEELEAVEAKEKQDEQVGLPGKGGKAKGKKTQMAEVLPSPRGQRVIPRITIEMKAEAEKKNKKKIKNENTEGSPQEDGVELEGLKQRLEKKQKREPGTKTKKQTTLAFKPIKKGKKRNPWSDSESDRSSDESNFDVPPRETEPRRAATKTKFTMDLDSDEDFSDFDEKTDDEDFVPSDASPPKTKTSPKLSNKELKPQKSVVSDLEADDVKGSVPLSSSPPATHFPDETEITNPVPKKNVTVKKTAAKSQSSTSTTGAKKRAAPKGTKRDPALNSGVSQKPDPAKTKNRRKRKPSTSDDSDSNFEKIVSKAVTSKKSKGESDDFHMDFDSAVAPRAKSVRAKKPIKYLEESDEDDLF

In the case of `Nc1ccc(-c2nc3ccc(-c4ccc5nc(-c6ccc(N)cc6)[nH]c5c4)cc3[nH]2)cc1` [STK295900, 4,4′-(3H,3′H-5,5′-bibenzimidazole-2,2′-diyl)dianiline], the half-maximal inhibitory concentration (IC50) in the experiment on HCT-116 cells turned out to be 2830 nM; in the experiment with SNU-601 cells it was 2210 nM; in the experiment on hTERT RPE-1 cells, 3430 nM; with SNU-484 cells, 1210 nM; with HeLa cells [3] (Table 1, cervical carcinoma), 520 nM; in the experiment with HeLa cells [3] (Table 2 comparison), 640 nM. In addition, the “effect of pretreatment on etoposide-induced γ-H2A.X” value in the experiment with HeLa cells [1] (pretreated up to 50 µM for 30 min, then 10 µM etoposide 1 h) is given as “could not prevent”. The “effect of pretreatment on camptothecin-induced γ-H2A.X” value in the experiment on HeLa cells [1] (pretreated with 10 µM for 30 min, then camptothecin 1 h) is given as “dramatically reduced”. In the experiment with HeLa cells [2], the “p53 and p21 levels” value is recorded as “did not induce upregulation of p53 but marginally affected p21 level”. The “phosphorylation-dependent activation of ATM (S1981), ATR (S428), Chk1 (S345), and Chk2 (T68)” value with HeLa cells [2] was “no increase in phosphorylations of ATM, ATR, Chk1, and Chk1”. The “Phosphorylation of Cdk1 at T161” value in the experiment on HeLa cells [2] (nocodazole 200 ng/ml) is listed as “dose-dependent increase”. Further, the “Wee1 and Cdc25C levels” value in the experiment on HeLa cells [2] (nocodazole 200 ng/ml) is “no change in Wee1 and Cdc25C levels”. The “cyclin A and cyclin B1 levels” value with HeLa cells [2] (nocodazole 200 ng/ml) was “accumulations of cyclin A and cyclin B1”. The “inhibitory phosphorylation of Cdk1 (T14 and Y15)” value with HeLa cells [2] (nocodazole 200 ng/ml) was “dose-dependent increase”. At human topoisomerase 2α, the “Top 2α-mediated DNA relaxation” value is on record as “inhibited Top 2α-mediated DNA relaxation”.
